What was measured:
Human TRPML1 = Human TRPML1 (Homo sapiens, UniProt Q9GZU1, L15A/L16A/L577A/L578A); experiment: Fluorescent TRPML1 assay (Fluo4-AM, HEK-293 Trex cells expressing hTRPML1); format: cell-based; details: fluorescent calcium assay, doxycycline-induced hTRPML1
Description: Example 27. Fluorescent TRPML Assays
(§1) HEK-293 Trex cells were stably transfected with a construct consisting of the human coding sequence for TRPML1 cloned into the tet-inducible plasmid pCDNA5 T/O. Mutations were introduced into the TRPML1 sequence to facilitate expression on the cell surface (Silvia Vergarajauregui, Rosa Puertollano Traffic. 2006 March; 7(3): 337-353). Briefly, the cells are cultured in 150 mm round tissue culture dishes containing 20 mL of media. The day before the assay the cells are rinsed with DPBS-Ca-Mg and then treated briefly with Trypsin-EDTA. The Trypsin-EDTA is diluted with growth media, and cells are counted. 38×10^6 cells are re-plated into 150 mm round tissue culture dishes in media containing 0.5 μg/mL doxycycline to induce expression of hTRPML1.
(§2) The day of the experiment cells are lifted from the plates as above and collected by centrifugation. The cells are then suspended in dye loading buffer consisting of Ringer's solution supplemented with 0.1% Pluronic Acid and 1 micromolar Fluo4-AM dye. Cells are loaded for ~60 minutes in the dark with occasional mixing. The cells are collected by centrifugation, the loading media aspirated, and the cells resuspended in 25 mL Ringer's solution and incubated ~60 minutes in the dark. The cells are again collected by centrifugation, rinsed in Ringer's Solution and resuspended to 0.2×10^6 cells/mL in modified Ringer's solution containing 10 mM calcium.
(§3) Compounds are dissolved to a concentration of 10 millimolar with DMSO. Compound plates are created by dispensing compounds into 384 well black wall clear bottom plates (Greiner 781091). Positive and negative controls are included on each plate. Typically, different amounts of each compound are tested ranging from 100 nanoMoles (20 micromolar final concentration) decreasing in half-log steps to 31 picoMoles (6 nanomolar final concentration). Each concentration is typically tested in triplicate.
(§4) 50 microliters of dye-loaded cells are dispensed into each well of the compound assay plate created above. The fluorescence in each well is then determined with an excitation wavelength of 480 nm and an emission wavelength of 540 nm using either a Molecular Devices SpectraMax multimode plate reader or a Hamamatsu FDSS/uCell plate imager.
(§5) The resulting fluorescence for each well is exported as an ascii file and loaded into our LIMS for analysis. The percent activity of each compound at each concentration is determined by comparison to the positive and negative control wells included in each plate.
(§6) EC50 values were calculated using a non-linear regression of Prism. In the table, “A” indicates an EC50 of less than 100 nM, “B” indicates an EC50 range from 100 nM to 500 nM: “C” indicates an EC50 range from 500 nM to 2 μM; and “D” indicates an EC50 greater than 2 μM.

Human TRPML3 = target: T1, Human TRPML3 (Homo sapiens, UniProt Q8TDD5); experiment: Fluorescent TRPML3 assay (as for TRPML1); format: cell-based; details: fluorescent calcium assay as for TRPML1, TRPML3 subtype
T1 construct: expressed in transfected cells
T1 sequence (Q8TDD5 1-553): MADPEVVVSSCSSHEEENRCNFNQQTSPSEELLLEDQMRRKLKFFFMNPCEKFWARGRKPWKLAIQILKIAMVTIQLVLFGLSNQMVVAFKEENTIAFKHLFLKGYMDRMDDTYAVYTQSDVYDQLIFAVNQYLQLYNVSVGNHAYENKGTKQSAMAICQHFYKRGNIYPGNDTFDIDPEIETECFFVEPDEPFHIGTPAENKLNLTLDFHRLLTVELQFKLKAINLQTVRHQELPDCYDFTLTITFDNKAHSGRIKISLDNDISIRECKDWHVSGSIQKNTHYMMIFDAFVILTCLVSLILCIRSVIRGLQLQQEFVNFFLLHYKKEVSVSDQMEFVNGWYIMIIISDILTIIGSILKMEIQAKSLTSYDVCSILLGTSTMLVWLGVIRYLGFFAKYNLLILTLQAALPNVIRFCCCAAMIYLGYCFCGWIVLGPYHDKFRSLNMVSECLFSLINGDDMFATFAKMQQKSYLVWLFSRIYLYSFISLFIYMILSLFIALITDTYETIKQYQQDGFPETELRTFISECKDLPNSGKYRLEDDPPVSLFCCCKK
Description: as §1, §2, §3, §4, §5
Assays for TRPML2 and TRPML3 were performed as above for TRPML1, by substituting the appropriate TRPML2 or TRPML3 subtype for the TRPML1.
as §6

Human TRPML1, sequence (Q9GZU1 whole entry L15A/L16A/L577A/L578A): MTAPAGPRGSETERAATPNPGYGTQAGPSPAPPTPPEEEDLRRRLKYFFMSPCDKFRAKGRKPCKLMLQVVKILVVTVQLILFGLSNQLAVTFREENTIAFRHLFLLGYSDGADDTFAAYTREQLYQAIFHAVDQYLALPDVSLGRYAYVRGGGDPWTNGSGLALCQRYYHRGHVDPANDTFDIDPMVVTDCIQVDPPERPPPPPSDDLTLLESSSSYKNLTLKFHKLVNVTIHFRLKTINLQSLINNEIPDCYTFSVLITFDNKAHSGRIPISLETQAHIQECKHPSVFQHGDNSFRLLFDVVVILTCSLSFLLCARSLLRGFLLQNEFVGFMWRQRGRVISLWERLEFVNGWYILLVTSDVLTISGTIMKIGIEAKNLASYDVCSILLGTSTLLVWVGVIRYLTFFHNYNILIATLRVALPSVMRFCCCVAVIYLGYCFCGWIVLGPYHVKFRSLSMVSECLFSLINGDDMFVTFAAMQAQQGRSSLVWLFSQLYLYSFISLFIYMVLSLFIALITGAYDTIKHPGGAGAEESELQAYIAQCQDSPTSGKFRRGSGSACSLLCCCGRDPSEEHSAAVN

`CC(C)(O)C(=O)N1CCN(c2ncnc3c2c(-c2ccccc2F)cn3-c2cc(C#N)ccn2)CC1` [Compound 124, 2-(5-(2-fluorophenyl)-4-(4-(2-hydroxy-2-methylpropanoyl)piperazin-1-yl)-7H-pyrrolo[2,3-d]pyrimidin-7-yl)isonicotinonitrile] showed an EC50 (Human TRPML1) of 500 to 2000 nM.

For `C[C@@H]1CN(c2nccc3c2c(-c2ccncc2)cn3-c2cc(F)cc(F)c2)[C@@H](C)CN1C(=O)C(C)(C)O` [Compound 143, 1-((2R,5S)-4-(1-(3,5-difluorophenyl)-3-(pyridin-4-yl)-1H-pyrrolo[3,2-c]pyridin-4-yl)-2,5-dimethylpiperazin-1-yl)-2-hydroxy-2-methylpropan-1-one], the EC50 (Human TRPML1) was over 2000 nM.

With `C[C@@H]1CN(c2ncnc3c2c(-c2ccccc2)cn3-c2cc(C#N)ccn2)[C@@H](C2CC2)CN1C(=O)C(C)(C)O` [Compound 119, 2-(4-((2S,5R)-2-cyclopropyl-4-(2-hydroxy-2-methylpropanoyl)-5-methylpiperazin-1-yl)-5-phenyl-7H-pyrrolo[2,3-d]pyrimidin-7-yl)isonicotinonitrile] the EC50 (Human TRPML3) was 500 to 2000 nM and the EC50 (Human TRPML1) was 100 to 500 nM.

In the case of `C[C@@H]1CN(c2ncnc3c2c(C2CC2)cn3-c2cc(C#N)ccn2)[C@@H](C)CN1C(=O)C(C)(C)O` [Compound 105, 2-(5-cyclopropyl-4-((2S,5R)-4-(2-hydroxy-2-methylpropanoyl)-2,5-dimethylpiperazin-1-yl)-7H-pyrrolo[2,3-d]pyrimidin-7-yl)isonicotinonitrile], the EC50 (Human TRPML1) is reported as 500 to 2000 nM.

`C[C@@H]1CN(c2nccc3c2c(-c2ccncc2)cn3-c2cccc(F)c2)[C@@H](C)CN1C(=O)C(C)(C)O` [Compound 144, 1-((2R,5S)-4-(1-(3-fluorophenyl)-3-(pyridin-4-yl)-1H-pyrrolo[3,2-c]pyridin-4-yl)-2,5-dimethylpiperazin-1-yl)-2-hydroxy-2-methylpropan-1-one] was tested, and the EC50 (Human TRPML3) was over 2000 nM and the EC50 (Human TRPML1) was over 2000 nM.

Compound `C[C@@H]1CN(c2nccc3c2c(-c2ccncc2)cn3-c2cccc(Cl)c2)[C@@H](C)CN1C(=O)C(C)(C)O` [Compound 142, 1-((2R,5S)-4-(1-(3-chlorophenyl)-3-(pyridin-4-yl)-1H-pyrrolo[3,2-c]pyridin-4-yl)-2,5-dimethylpiperazin-1-yl)-2-hydroxy-2-methylpropan-1-one] has an EC50 (Human TRPML3) of over 2000 nM and an EC50 (Human TRPML1) of 500 to 2000 nM.

With `C[C@@H]1CN(c2ncnc3c2c(-c2ccncc2)cn3-c2cc(F)ccn2)[C@@H](C)CN1C(=O)C(C)(C)O` [Compound 136, 1-((2R,5S)-4-(7-(4-fluoropyridin-2-yl)-5-(pyridin-4-yl)-7H-pyrrolo[2,3-d]pyrimidin-4-yl)-2,5-dimethylpiperazin-1-yl)-2-hydroxy-2-methylpropan-1-one] the EC50 (Human TRPML3) was over 2000 nM and the EC50 (Human TRPML1) was 500 to 2000 nM.

`C[C@@H]1CN(c2ncnc3c2c(-c2ccccc2F)cn3-c2cc(OC(F)(F)F)ccn2)[C@@H](C)CN1C(=O)C(C)(C)O` [Compound 103, 1-((2R,5S)-4-(5-(2-fluorophenyl)-7-(4-(trifluoromethoxy)pyridin-2-yl)-7H-pyrrolo[2,3-d]pyrimidin-4-yl)-2,5-dimethylpiperazin-1-yl)-2-hydroxy-2-methylpropan-1-one] showed an EC50 (Human TRPML3) of 500 to 2000 nM and an EC50 (Human TRPML1) of 100 to 500 nM.

With `C[C@@H]1CN(c2ncnc3c2c(-c2ccno2)cn3-c2cc(C#N)ccn2)[C@@H](C)CN1C(=O)C(C)(C)O` [Compound 152] the EC50 (Human TRPML3) was over 2000 nM and the EC50 (Human TRPML1) was 500 to 2000 nM.

With `C[C@@H]1CN(c2ncnc3c2c(-c2ccccc2F)cn3-c2cc(C#N)ccn2)[C@@H](C)CN1C(=O)C(C)(O)CO` (stereo partly drawn) [Compound 167, 2-(4-((2S,5R)-4-(2,3-dihydroxy-2-methylpropanoyl)-2,5-dimethylpiperazin-1-yl)-5-(2-fluorophenyl)-7H-pyrrolo[2,3-d]pyrimidin-7-yl)isonicotinonitrile] the EC50 (Human TRPML3) was 500 to 2000 nM and the EC50 (Human TRPML1) was 100 to 500 nM.

Compound `C[C@@H]1CN(c2ncnc3c2c(-c2ccccc2)cn3-c2cc(C#N)ccn2)[C@@H](C)CN1C(=O)C(C)(C)O` [Compound 101, 2-(4-((2S,5R)-4-(2-hydroxy-2-methylpropanoyl)-2,5-dimethylpiperazin-1-yl)-5-phenyl-7H-pyrrolo[2,3-d]pyrimidin-7-yl)isonicotinonitrile] has an EC50 (Human TRPML3) of 500 to 2000 nM and an EC50 (Human TRPML1) of under 100 nM.

Work on `C[C@@H]1CN(c2ncnc3c2c(-c2ccccc2F)cn3-c2cc(C#N)ccn2)[C@@H](C)CN1C(=O)C1(O)CCN(C)CC1` [Compound 123, 2-(5-(2-fluorophenyl)-4-((2S,5R)-4-(4-hydroxy-1-methylpiperidine-4-carbonyl)-2,5-dimethylpiperazin-1-yl)-7H-pyrrolo[2,3-d]pyrimidin-7-yl)isonicotinonitrile] yielded an EC50 (Human TRPML3) of over 2000 nM and an EC50 (Human TRPML1) of over 2000 nM.

For `C[C@@H]1CN(c2ncnc3c2c(-c2ccccc2)cn3-c2cc(F)ccn2)[C@@H](C)CN1C(=O)C(C)(C)O` [Compound 106, 1-((2R,5S)-4-(7-(4-fluoropyridin-2-yl)-5-phenyl-7H-pyrrolo[2,3-d]pyrimidin-4-yl)-2,5-dimethylpiperazin-1-yl)-2-hydroxy-2-methylpropan-1-one], the EC50 (Human TRPML3) was over 2000 nM and the EC50 (Human TRPML1) was 100 to 500 nM.

Compound `C[C@H]1CN(C(=O)C2(O)CCC2)CCN1c1ncnc2c1c(-c1ccccc1)cn2-c1cc(C#N)ccn1` [Compound 118, (S)-2-(4-(4-(1-hydroxycyclobutane-1-carbonyl)-2-methylpiperazin-1-yl)-5-phenyl-7H-pyrrolo[2,3-d]pyrimidin-7-yl)isonicotinonitrile] has an EC50 (Human TRPML3) of 100 to 500 nM and an EC50 (Human TRPML1) of 100 to 500 nM.

With `C[C@H]1CN(c2ncnc3c2c(-c2ccccc2F)cn3-c2cc(C#N)ccn2)[C@@H](C)CN1C(=O)C(C)(C)O` [Compound 169, 2-(5-(2-fluorophenyl)-4-((2S,5S)-4-(2-hydroxy-2-methylpropanoyl)-2,5-dimethylpiperazin-1-yl)-7H-pyrrolo[2,3-d]pyrimidin-7-yl)isonicotinonitrile] the EC50 (Human TRPML3) was over 2000 nM and the EC50 (Human TRPML1) was 500 to 2000 nM.

For `C[C@@H]1CN(c2nccc3c2c(-c2ccncc2)cn3-c2cccc(C#N)c2)[C@@H](C)CN1C(=O)C(C)(C)O` [Compound 145, 3-(4-((2S,5R)-4-(2-hydroxy-2-methylpropanoyl)-2,5-dimethylpiperazin-1-yl)-3-(pyridin-4-yl)-1H-pyrrolo[3,2-c]pyridin-1-yl)benzonitrile], the EC50 (Human TRPML3) was over 2000 nM and the EC50 (Human TRPML1) was over 2000 nM.

`C[C@@H]1CN(c2ncnc3c2c(-c2nncs2)cn3-c2cc(C#N)ccn2)[C@@H](C)CN1C(=O)C(C)(C)O` [Compound 155, 2-(4-((2S,5R)-4-(2-hydroxy-2-methylpropanoyl)-2,5-dimethylpiperazin-1-yl)-5-(1,3,4-thiadiazol-2-yl)-7H-pyrrolo[2,3-d]pyrimidin-7-yl)isonicotinonitrile] was tested, and the EC50 (Human TRPML1) was over 2000 nM.

`C[C@@H]1CN(c2ncnc3c2c(C2CC2)cn3-c2cc(C#N)ccn2)[C@@H](C)CN1C(=O)CC(O)(C(F)(F)F)C(F)(F)F` [Compound 162, 2-(5-cyclopropyl-4-((2S,5R)-2,5-dimethyl-4-(4,4,4-trifluoro-3-hydroxy-3-(trifluoromethyl)butanoyl)piperazin-1-yl)-7H-pyrrolo[2,3-d]pyrimidin-7-yl)isonicotinonitrile] showed an EC50 (Human TRPML3) of 100 to 500 nM.

Compound `C[C@@H]1CN(c2ncnc3c2c(-c2ccncc2)cn3-c2cc(F)cc(F)c2)[C@@H](C)CN1C(=O)C(C)(C)O` [Compound 138, 1-((2R,5S)-4-(7-(3,5-difluorophenyl)-5-(pyridin-4-yl)-7H-pyrrolo[2,3-d]pyrimidin-4-yl)-2,5-dimethylpiperazin-1-yl)-2-hydroxy-2-methylpropan-1-one] has an EC50 (Human TRPML1) of over 2000 nM.
